Ends that are not written are not given here.
Tested on: NSC34 cells transformed with SOD1 mutant (A4T-SOD1, G85R-SOD1, G93R-SOD1) genes
Experiment: Neuronal cell death test, Trypan blue exclusion assay, NSC34 cells transformed with SOD1 mutant genes
Assay type: cell-based, mouse
Procedure: NSC34 cell, the hybrid cell of primary cultured, motor neuron-system embryonic mouse spinal cord cell with mouse neuroblastoma NTG18 cell, was cultured in […] medium containing 10% FBS and antibiotics (Cashman N R, et al., 1992, Dev Dyn 194: 209-221; and Durham H D, et al, 1993, Neurotoxicology 14: 387-395).
The NSC34 cells (7×10^4 cells/well, 6-well plate, 12 to 16-hour culture in DMEM (10% FBS) medium) were transformed with wild-type or SOD1 mutant (A4T, G85R, and G93R) genes by lipofection (0.5 μg of each SOD1 gene; 1 μl of LipofectAMINE; 2 μl of PLUS Reagent) under serum-free conditions for 3 hours and cultured for 21 hours in DMEM (10% FBS) and after 48 hours in DMED supplemented with N2 supplement (Invitrogen). After 72 hours of the transformation, cell mortality was measured by Trypan blue exclusion assay in the same way as above.
F11 or NSC34 cells were transformed with pEF-BOS, A4T-SOD1, G85R-SOD1, or G93R-SOD1 cDNA in the presence of increasing concentrations (10 aM, 1 fM, 100 fM, 10 pM, 1 nM, and 100 nM) of ADNF. After 72 hours, cell mortality was measured by Trypan blue exclusion assay.

## SALLRSIPA [ADNF, short peptide consisting of nine amino acid residues]
100 fM ADNF, three SOD1 mutant genes, 72 hours
  inhibition of neuronal cell death caused by SOD1 mutant genes: can completely inhibit neuronal cell death
ADNF at concentrations equal to or above 10 nM
  inhibitory effect on neuronal cell death at high concentration: not decreased

Reference: US20100279942A1, “METHODS FOR TREATING MOTOR NEURON DISEASE” (priority 2004, published 2010)
